Key:
[1] = target: T1, Streptococcus pneumoniae tryptophan-binding protein 31ft (SEQ ID NO: 1) with cpYFP inserted at 263/266, optical sensor 31ft-263/266-cpYFP, SEQ ID NO: 7 (Streptococcus pneumoniae, UniProt A0A0H2UPV6, DELINS312-313[…]); conditions: for response to amino acid (specific detection): specificity, FIG. 7
T1 construct: His-tag; E. coli JM109(DE3), nickel-purified
Description: (§1) 3. The centrifuged supernatant was purified by a self-packed nickel-column affinity chromatography column to obtain the protein, and the protein after nickel-column affinity chromatography was then passed through a self-packed desalting column to obtain the protein dissolved in 100 mM HEPES buffer (pH 7.4).

[2] = target: T2, Streptococcus pneumoniae tryptophan-binding protein 31ft (SEQ ID NO: 1) with cpYFP inserted at 263/265, optical sensor 31ft-263/265-cpYFP, SEQ ID NO: 6 (Streptococcus pneumoniae, UniProt A0A0H2UPV6, DELINS312-312[…]); conditions: for response to amino acid (specific detection): specificity, FIG. 7
T2 construct: His-tag; pCDF, E. coli JM109(DE3), nickel-column purified
Description: as §1

[3] = target: T3, Streptococcus pneumoniae tryptophan-binding protein 31ft (SEQ ID NO: 1) with cpGFP (SEQ ID NO: 3) inserted at 263/268 (Streptococcus pneumoniae, UniProt A0A0H2UPV6, DEL312-315); experiment: Tryptophan response screening, disrupted supernatant, cpGFP 263/268; format: biochemical; conditions: method of Example 2 (1 mM tryptophan)
T3 construct: E. coli disrupted supernatant
Description: (§2) Tryptophan response screening was performed with disrupted supernatants of E. coli expressing the 31ft-cpYFP fusion protein, and the detection signal of the fusion fluorescent protein containing 1 mM tryptophan was divided by the detection signal of the fusion fluorescent protein without tryptophan.
(§3) According to the method in Example 2, cpYFP was replaced with cpGFP to construct a tryptophan green fluorescent protein fluorescent sensor.

[4] = system: Streptococcus pneumoniae 31ft-cpYFP optical sensor mutants L84F, F202W, K214F, K214W, Y217F, Y217W, K255F, K255W, T259F, T259W, I283F and I283W; experiment: Fluorescence detection of purified mutated cpYFP optical sensors; format: biochemical; conditions: purified proteins; FIG. 8
Description: The plasmids pCDF-31ft-263/265-cpYFP, pCDF-31ft-263/266-cpYFP, pCDF-31ft-263/267-cpYFP were linearized by PCR with the primers containing the base sequence of the desired mutation site.
Phosphorus was added to the obtained PCR products under the action of PNK, T4 DNA ligase and PEG4000, thereby obtaining mutant plasmids of 15 sites of H13, T71, L84, D93, K105, N117, T130, V170, V192, F202, K214, Y217, K255, T259, 1283, and the sequencing was completed by Jie Li Sequencing Company. An exemplary nucleic acid sequence is set forth in SEQ ID NO:40 (263/266-T259F).

[5] = target: T4, Streptococcus pneumoniae tryptophan-binding protein 31ft (SEQ ID NO: 1) with cpGFP (SEQ ID NO: 3) inserted at 263/265 (Streptococcus pneumoniae, UniProt A0A0H2UPV6, DEL312-312); experiment: Tryptophan response screening, disrupted supernatant, cpGFP 263/265; format: biochemical; conditions: method of Example 2 (1 mM tryptophan)
T4 construct: E. coli disrupted supernatant
Description: as §2, §3

[6] = target: tryptophan optical sensor (Streptococcus pneumoniae tryptophan-binding protein 31ft fusion) (Streptococcus pneumoniae, UniProt A0A0H2UPV6); experiment: Highest response of the tryptophan optical sensor provided in this application; format: biochemical
[7] = target: T5, Streptococcus pneumoniae tryptophan-binding protein 31ft (SEQ ID NO: 1) with cpYFP inserted at 263/267, optical sensor 31ft-263/267-cpYFP, SEQ ID NO: 8 (Streptococcus pneumoniae, UniProt A0A0H2UPV6, DELINS312-314[…]); experiment: Titration and specificity detection, purified sensor 31ft-263/267-cpYFP; conditions: 420/485 fluorescence ratio, concentration gradient tryptophan
T5 construct: His-tag; E. coli JM109(DE3), nickel-purified
Description: as §1

[8] = target: T6, Streptococcus pneumoniae tryptophan-binding protein 31ft (SEQ ID NO: 1) with cpYFP inserted at 263/268, optical sensor 31ft-263/268-cpYFP, SEQ ID NO: 9 (Streptococcus pneumoniae, UniProt A0A0H2UPV6, DELINS312-315[…]); experiment: Titration and specificity detection, purified sensor 31ft-263/268-cpYFP; conditions: 420/485 fluorescence ratio, concentration gradient tryptophan
T6 construct: His-tag; E. coli JM109(DE3), nickel-purified
Description: as §1

HeLa cells = experiment: Dynamic monitoring of tryptophan transmembrane transport in HeLa cells expressing the optical sensor in the cytosol; format: cell-based; conditions: 1 mM tryptophan, 30 min, HBSS
Description: 1. The pCDNA3.1+-based tryptophan optical sensor plasmid was transfected into HeLa by the transfection reagent Lipofectamine2000 (Invitrogen), and cultured in a cell incubator at 37° C., 5% CO2. Fluorescence detection was performed 24-36 h after the exogenous gene was fully expressed.
2. After induction of expression, adherent HeLa cells were washed three times with PBS and placed in HMS solution for fluorescence microscopy and microplate reader assays, respectively.
Add 1 mM tryptophan and continue the assay for 30 minutes.

[9] = target: T7, Streptococcus pneumoniae tryptophan-binding protein 31ft (SEQ ID NO: 1) with cpYFP inserted at 263/266, SEQ ID NO: 7 (Streptococcus pneumoniae, UniProt A0A0H2UPV6, DELINS312-313[…]); experiment: Tryptophan response screening, disrupted supernatant, cpYFP 263/266; format: biochemical; conditions: 1 mM tryptophan, disrupted supernatant of E. coli
T7 construct: His-tag; E. coli JM109(DE3), disrupted supernatant
Description: as §2

[10] = target: T8, Streptococcus pneumoniae tryptophan-binding protein 31ft with cpYFP inserted at 263/266, mutant T259F, optical sensor 31ft-263/266-cpYFP-T259F, SEQ ID NO: 31 (Streptococcus pneumoniae, UniProt A0A0H2UPV6, DELINS312-313[…]/T307F); experiment: Fluorescence spectra and tryptophan response of purified 31ft-263/266-cpYFP-T259F; format: biochemical
T8 construct: His-tag; E. coli, purified
Description: 6. […] The determination of the absorption spectrum and fluorescence spectrum of the sample is completed by a spectrophotometer and a fluorescence spectrophotometer.
Detection of fluorescence spectra was performed using a fluorescence spectrophotometer after subjecting purified tryptophan optical sensor 31ft-263/266-cpYFP-T259F to 0 mM and 1 mM tryptophan treatments for 10 min, respectively.
Determination of emission spectra: excitation spectra were recorded with an fixed excitation wavelength of 420 nm and 485 nm and an emission range of 470-600 nm and 490-600 nm, read every 5 nm.

[11] = target: T9, Streptococcus pneumoniae tryptophan-binding protein 31ft (SEQ ID NO: 1) with cpGFP (SEQ ID NO: 3) inserted at 263/267 (Streptococcus pneumoniae, UniProt A0A0H2UPV6, DEL312-314); experiment: Tryptophan response screening, disrupted supernatant, cpGFP 263/267; format: biochemical; conditions: method of Example 2 (1 mM tryptophan)
T9 construct: E. coli disrupted supernatant
Description: as §2, §3

[12] = target: T10, Streptococcus pneumoniae tryptophan-binding protein 31ft (SEQ ID NO: 1) with cpGFP (SEQ ID NO: 3) inserted at 263/266 (Streptococcus pneumoniae, UniProt A0A0H2UPV6, DEL312-313); experiment: Tryptophan response screening, disrupted supernatant, cpGFP 263/266; format: biochemical; conditions: method of Example 2 (1 mM tryptophan)
T10 construct: E. coli disrupted supernatant
Description: as §2, §3

[13] = target: T11, Streptococcus pneumoniae tryptophan-binding protein 31ft (SEQ ID NO: 1) with cpYFP inserted at 263/265, SEQ ID NO: 6 (Streptococcus pneumoniae, UniProt A0A0H2UPV6, DELINS312-312[…]); experiment: Tryptophan response screening, disrupted supernatant, cpYFP 263/265; format: biochemical; conditions: 1 mM tryptophan, disrupted supernatant of E. coli
T11 construct: His-tag; pCDF, E. coli JM109(DE3) disrupted supernatant
Description: as §2

[14] = target: T12, Streptococcus pneumoniae tryptophan-binding protein 31ft (SEQ ID NO: 1) with cpYFP inserted at 263/268, SEQ ID NO: 9 (Streptococcus pneumoniae, UniProt A0A0H2UPV6, DELINS312-315[…]); experiment: Tryptophan response screening, disrupted supernatant, cpYFP 263/268; format: biochemical; conditions: 1 mM tryptophan, disrupted supernatant of E. coli
T12 construct: His-tag; E. coli JM109(DE3), disrupted supernatant
Description: as §2

[15] = target: T13, Streptococcus pneumoniae tryptophan-binding protein 31ft (SEQ ID NO: 1) with cpYFP inserted at 263/267, SEQ ID NO: 8 (Streptococcus pneumoniae, UniProt A0A0H2UPV6, DELINS312-314[…]); experiment: Tryptophan response screening, disrupted supernatant, cpYFP 263/267; format: biochemical; conditions: 1 mM tryptophan, disrupted supernatant of E. coli
T13 construct: His-tag; E. coli JM109(DE3), disrupted supernatant
Description: as §2

[16] = 420/485 fluorescence ratio, concentration gradient tryptophan

Compound	response to amino acid (specific detection) [1]	response to amino acid (specific detection) [2]	response to tryptophan [3]	response to tryptophan [4]	response to tryptophan [5]	highest response to tryptophan, increase of the control [6]	change amplitude [7]	change amplitude [8]	highest 485/420 ratio relative to the initial value (HeLa cells)	response to tryptophan (signal with / without tryptophan) [9]	decrease in fluorescence intensity under excitation at 460 nm, compared to 0 mM tryptophan ([10]; 1 mM tryptophan, 10 min)	fluorescence intensity excited at 420 nm, relative to 0 mM tryptophan ([10]; 1 mM tryptophan, 10 min)	response to tryptophan ([10]; purified protein)	response to tryptophan [11]	response to tryptophan [12]	change amplitude [1, 16]	change amplitude [2, 16]	response to tryptophan (signal with / without tryptophan) [13]	response to tryptophan (signal with / without tryptophan) [14]	response to tryptophan (signal with / without tryptophan) [15]
N[C@@H](Cc1ccccc1)C(=O)O [phenylalanine]	1.34 times	1.37 times																		
N[C@@H](Cc1c[nH]c2ccccc12)C(=O)O [tryptophan, L-tryptophan]			more than 1.5 times	more than 2.5 times	more than 1.5 times	more than 9 fold	3.3 times	3.0 times	1.3 times	more than 1.5 times	0.26 fold	1.1 times	more than 2.5 fold	more than 1.5 times	more than 1.5 times	5.3 times	4.2 times	more than 1.5 times	more than 1.5 times	more than 1.5 times
N[C@@H](Cc1ccc(O)cc1)C(=O)O [tyrosine]	1.26 times	1.25 times																		

Reference: patent US12724034B2, “Tryptophan optical probe, preparation method therefor and use thereof” (priority 2020, dated 2026)
